From PMC9186373, “Design, synthesis, and biological evaluation of novel carbazole derivatives as potent DNMT1 inhibitors with reasonable PK properties” (Journal of Enzyme Inhibition and Medicinal Chemistry, 2022)

What was measured:
human DNMT1 = experiment: ELISA EpiQuik DNA methyltransferase (DNMT) activity/inhibitor assay; type: biochemical; conditions: for Inh% at 50 μM: 50 μM compound; for Inh% at 50 μM / Inh% at 100 μM: 200 nM purified DNMT1, EpiQuik kit; for Inh% at 100 μM: 100 μM compound; for DNMT1 inhibitory activity: SAR discussion of Table 1
Procedure: All the compounds were first screened using an ELISA EpiQuik DNA methyltransferase (DNMT) activity/inhibitor assay kit (Epigentek). To measure the effects of the compounds on human DNMT1 activity, 200 nM purified DNMT1 was incubated with 50 µM and 100 µM of the different compounds and S-adenosylmethionine in the DNMT assay buffer in the assay plate at 37 °C for 2 h[36]. Next, every sample was incubated with the capture and detection antibody, followed by incubation with developer solution for 10 min at room temperature. The absorbance was measured at 450 nm using a POLARstar Omega microplate reader (BMG). S-Adenosylhomocysteine (AdoHcy) was used as a positive control. Methylation inhibition assays for EZH2, LSD, and G9a were performed in modified Tris, pH 9.0, buffer using AlphaLisa technology. An amount of 10 µL of the reaction system contained a corresponding concentration of SAM (Sigma) (EZH2 50 µM, LSD 50 µM, and G9a 50 µM), which was the Km value in each enzymatic reaction, plus 100 nM biotinylated peptide H3 (1–21) (synthesis by GLChina) and the relevant enzyme concentration (0.03 nM EZH2, 0.03 nM LSD, and 0.03 nM G9a). The proteins were preincubated with various compound concentrations for 15 min at room temperature before the substrate and SAM were added. After 60 min of incubation at room temperature, acceptor and donor AlphaLisa beads were added according to the manufacturer’s recommendations. The signals were read in Alpha mode with an EnSpire multimode plate reader (PerkinElmer). IC50 values were derived by fitting the data for the inhibition percentage to a dose-response curve by non-linear regression in GraphPad Prism 5.0[20].
DNMT1 inhibition test was performed on 30 candidates to verify their biochemical activities. The EpiQuik DNA methyl-transferase (DNMT) activity/inhibitor assay kit (Epigentek) was used to identify the activity of synthetic compounds.

DNMT1 = DNMT1 (Homo sapiens, UniProt P26358); experiment: H3-labelled radioactive methylation assay; type: biochemical; conditions: H3-labeled radioactive methylation assay; 40 nM DNMT1
Chain of DNMT1 (P26358 whole entry): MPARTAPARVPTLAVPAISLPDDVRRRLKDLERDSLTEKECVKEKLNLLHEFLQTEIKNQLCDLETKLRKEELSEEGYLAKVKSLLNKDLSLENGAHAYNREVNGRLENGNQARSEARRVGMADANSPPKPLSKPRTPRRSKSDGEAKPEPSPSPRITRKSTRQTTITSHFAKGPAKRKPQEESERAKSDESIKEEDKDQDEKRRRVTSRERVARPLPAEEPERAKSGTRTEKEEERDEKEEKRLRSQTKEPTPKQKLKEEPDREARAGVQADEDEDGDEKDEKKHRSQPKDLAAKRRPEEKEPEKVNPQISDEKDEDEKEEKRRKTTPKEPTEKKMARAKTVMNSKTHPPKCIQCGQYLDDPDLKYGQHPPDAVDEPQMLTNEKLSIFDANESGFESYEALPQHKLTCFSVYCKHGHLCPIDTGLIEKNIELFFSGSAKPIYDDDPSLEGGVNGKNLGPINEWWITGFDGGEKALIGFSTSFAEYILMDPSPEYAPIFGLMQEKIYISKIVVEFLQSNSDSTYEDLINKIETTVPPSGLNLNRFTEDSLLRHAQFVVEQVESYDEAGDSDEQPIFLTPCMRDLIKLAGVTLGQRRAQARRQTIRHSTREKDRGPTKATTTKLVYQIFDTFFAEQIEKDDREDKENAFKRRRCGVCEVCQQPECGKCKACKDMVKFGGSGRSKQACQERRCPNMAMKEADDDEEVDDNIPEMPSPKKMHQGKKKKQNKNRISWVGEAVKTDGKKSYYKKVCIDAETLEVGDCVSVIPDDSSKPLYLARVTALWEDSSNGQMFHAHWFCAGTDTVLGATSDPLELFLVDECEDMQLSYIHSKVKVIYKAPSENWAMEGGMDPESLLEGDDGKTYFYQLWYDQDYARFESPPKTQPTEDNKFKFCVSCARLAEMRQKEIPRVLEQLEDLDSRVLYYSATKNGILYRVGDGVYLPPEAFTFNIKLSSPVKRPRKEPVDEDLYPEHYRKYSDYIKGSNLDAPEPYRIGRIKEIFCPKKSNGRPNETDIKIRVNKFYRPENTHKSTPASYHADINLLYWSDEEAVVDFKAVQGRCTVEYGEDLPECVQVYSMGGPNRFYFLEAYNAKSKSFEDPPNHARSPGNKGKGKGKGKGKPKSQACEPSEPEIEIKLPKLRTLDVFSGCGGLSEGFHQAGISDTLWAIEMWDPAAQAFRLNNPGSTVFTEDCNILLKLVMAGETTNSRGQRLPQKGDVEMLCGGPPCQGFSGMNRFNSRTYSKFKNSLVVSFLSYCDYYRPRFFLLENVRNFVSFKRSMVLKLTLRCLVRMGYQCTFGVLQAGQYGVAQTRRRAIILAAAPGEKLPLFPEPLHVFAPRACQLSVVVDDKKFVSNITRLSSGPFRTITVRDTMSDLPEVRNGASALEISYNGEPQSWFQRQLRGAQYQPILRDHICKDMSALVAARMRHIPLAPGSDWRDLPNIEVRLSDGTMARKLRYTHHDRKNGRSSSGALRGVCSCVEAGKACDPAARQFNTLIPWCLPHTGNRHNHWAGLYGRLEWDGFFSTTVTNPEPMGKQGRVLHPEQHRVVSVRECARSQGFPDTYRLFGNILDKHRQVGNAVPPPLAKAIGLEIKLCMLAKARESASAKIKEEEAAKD
Procedure: The DNMT1 radioactive methylation inhibition assays were performed in 30 µL reactions containing 0.1 µM adenosyl-L-methionine S-[methyl-^3H] (^3H-SAM, ^15 Ci/mmol, PerkinElmer), 0.25 µg/mL poly (dI-dC)·poly (dI-dC) (Sigma), 40 nM DNMT1 in 50 mM Tris-HCl, pH 8.0, 1 mM DTT, 5% glycerol, and 100 µg/mL BSA. The proteins were preincubated with a range of compound concentrations for 15 min at room temperature before adding the substrate and [^3H] SAM. After 60 min of incubation at 37 °C, the reaction systems were transferred to a MultiScreen HTS filter plate (Millipore), and the plate was washed 3 times with doubly distilled H2O via a vacuum. The radioactivity was determined by liquid scintillation counting (MicroBeta, PerkinElmer). IC50 values were derived by fitting the data for the inhibition percentage to a dose-response curve by non-linear regression in GraphPad Prism 5.0.
To quantitatively analyse DNMT1 inhibitory effect, the H^3-labelled radioactive methylation assay was conducted to measure the methyltransferase activity of DNMT1 at a range of concentrations for these compounds.

PK study in SD rats = type: in vivo; conditions: rat, plasma, SD male rats; for AUC(0-t) / Tmax / half-life: mean ± SD (n = 3)
Procedure: In vivo pharmacokinetic properties of WK-22, WK-23, WK-27, and DC_517 were performed by Medicilon Company, Shanghai, China. SPF-grade SD male rats (8 groups, n = 3 rats per group) with a body weight of 230–260 g were purchased from Shanghai SIPPR-BK LAB Animal Ltd., Shanghai, China, and used for the pharmacokinetic analysis of the tested compounds. All animals were deprived of food overnight after the cannulation surgery. Subsequently, the tested compounds WK-23 and DC_517 were dissolved/suspended in 5% DMSO, 10% Solutol, and 85% water, and the tested compounds WK-22 and WK-27 were dissolved/suspended in 5% DMSO, 40% PEG400, and 55% saline for intravenous administration (i.v.) and oral administration (p.o.), respectively. A final dosage of 2.0 and 10.0 mg/kg rat of the formulated compounds was administered for i.v. and p.o. purposes, respectively, and the blood samples were taken at various time points during a 24 h period. At different time points, blood samples were collected from the femoral vein. The plasma samples were obtained after centrifugation (6800 g, 6 min, 2–8 °C) and stored at −80 °C until the assay. The AUC (area under concentration-time curve) was calculated through the trapezoidal rule with extrapolation to time infinity. The concentration of the compounds in the blood was analysed by LC-MS/MS (Shimadzu liquid chromatographic system and SCIEX Triple Quad 5500+ mass spectrometer, Applied Biosystems, Ontario, Canada). The Tmax, T1/2, and Cmax value was obtained through visual inspection of the plasma concentration-time curve. The Vss value was generated from DAS 3.2.8 software. The F value of WK-23 was calculated with the formula: F = (AUC p.o. × Dose i.v.)/(AUC i.v. × Dose p.o.) × 100%.

OC(CNCCc1c[nH]c2ccccc12)COC(Cn1c2ccccc2c2cc(F)ccc21)Cn1c2ccc(F)cc2c2cc(F)ccc21 (centres unmarked) [WK-28, 1-((2-(1H-indol-3-yl)ethyl)amino)-3-((1-(3,6-difluoro-9H-carbazol-9-yl)-3-(3-fluoro-9H-carbazol-9-yl)propan-2-yl)oxy)propan-2-ol]
melting point: 113 to 115 °C | Inh% at 50 μM (human DNMT1): 91% | Inh% at 100 μM (human DNMT1): 91%

OC(CNCc1ccc(F)cc1)Cn1c2ccccc2c2cc(F)ccc21 (centres unmarked) [WK-9, 1-(3-Fluoro-9H-carbazol-9-yl)-3-((4-fluorobenzyl)amino)propan-2-ol]
melting point: 130 to 132 °C | Inh% at 50 μM (human DNMT1): 25% | Inh% at 100 μM (human DNMT1): 53%

CC(C)(C)OC(=O)N1CCN(CC(O)Cn2c3ccccc3c3cc(F)ccc32)C[C@H]1CO (stereo partly drawn) [WK-10, (2S)-tert-butyl 4-(3-(3-fluoro-9H-carbazol-9-yl)-2-hydroxypropyl)-2-(hydroxymethyl)piperazine-1-carboxylate]
melting point: 71 to 73 °C | Inh% at 50 μM (human DNMT1): 5.1% | Inh% at 100 μM (human DNMT1): −9.0%

C[C@@H](CNCC(O)Cn1c2ccccc2c2cc(F)ccc21)c1ccccc1 (stereo partly drawn) [WK-8, 1-(3-Fluoro-9H-carbazol-9-yl)-3-(((R)-2-phenylpropyl)amino)propan-2-ol]
melting point: 100 to 102 °C | Inh% at 50 μM (human DNMT1): 16% | Inh% at 100 μM (human DNMT1): 58%

Oc1ccc(CCNCC(O)Cn2c3ccccc3c3cc(F)ccc32)cc1 (centres unmarked) [WK-3, 4-(2-((3-(3-Fluoro-9H-carbazol-9-yl)-2-hydroxypropyl)amino)ethyl)phenol]
IC50 (DNMT1): 27 µM | melting point: 140 to 142 °C | Inh% at 50 μM (human DNMT1): 71% | Inh% at 100 μM (human DNMT1): 79%

CCCCOCCCNCC(O)Cn1c2ccc(F)cc2c2cc(F)ccc21 (centres unmarked) [WK-17, 1-((3-butoxypropyl)amino)-3-(3,6-difluoro-9H-carbazol-9-yl)propan-2-ol]
melting point: 94 to 96 °C | Inh% at 50 μM (human DNMT1): 73% | Inh% at 100 μM (human DNMT1): 79%

CCCCOCCCNCC(O)Cn1c2ccccc2c2cc(F)ccc21 (centres unmarked) [WK-5, 1-((3-Butoxypropyl)amino)-3-(3-fluoro-9H-carbazol-9-yl)propan-2-ol]
melting point: 71 to 73 °C | Inh% at 50 μM (human DNMT1): 59% | Inh% at 100 μM (human DNMT1): 65%

OC(CNCCc1c[nH]c2ccccc12)Cn1c2ccccc2c2cccnc21 (centres unmarked) [WK-21, 1-((2-(1H-indol-3-yl)ethyl)amino)-3-(9H-pyrido[2,3-b]indol-9-yl)propan-2-ol]
melting point: 107 to 109 °C | Inh% at 50 μM (human DNMT1): 39% | Inh% at 100 μM (human DNMT1): 34%

CC(CO)NCC(O)Cn1c2ccccc2c2cc(F)ccc21 (centres unmarked) [WK-7, 2-((3-(3-Fluoro-9H-carbazol-9-yl)-2-hydroxypropyl)amino)propan-1-ol]
IC50 (DNMT1): 9.6 µM | melting point: 119 to 121 °C | Inh% at 50 μM (human DNMT1): 67% | Inh% at 100 μM (human DNMT1): 83%

OC(CNCCc1ccc(F)cc1)Cn1c2ccccc2c2cc(F)ccc21 (centres unmarked) [WK-2, 1-(3-Fluoro-9H-carbazol-9-yl)-3-((4-fluorophenethyl)amino)propan-2-ol]
melting point: 109 to 111 °C | Inh% at 50 μM (human DNMT1): 55% | Inh% at 100 μM (human DNMT1): 66%

OC[C@@H]1CN(CC(O)Cn2c3ccccc3c3cc(F)ccc32)CCN1 (stereo partly drawn) [WK-11, 1-(3-Fluoro-9H-carbazol-9-yl)-3-((S)-3-(hydroxymethyl)piperazin-1-yl)propan-2-ol]
melting point: 35 to 37 °C | Inh% at 50 μM (human DNMT1): 41% | Inh% at 100 μM (human DNMT1): 50%

CC(C)(C)OC(=O)N1CCN(CC(O)COC(Cn2c3ccccc3c3cc(F)ccc32)Cn2c3ccc(F)cc3c3cc(F)ccc32)C[C@@H]1CO (stereo partly drawn) [WK-26, (2R)-tert-butyl 4-(3-((1-(3,6-difluoro-9H-carbazol-9-yl)-3-(3-fluoro-9H-carbazol-9-yl)propan-2-yl)oxy)-2-hydroxypropyl)-2-(hydroxymethyl)piperazine-1-carboxylate]
melting point: 74 to 76 °C | Inh% at 50 μM (human DNMT1): 8.7% | Inh% at 100 μM (human DNMT1): −16% | DNMT1 inhibitory activity (human DNMT1): lost its activity

COc1ccccc1OCCNCC(O)Cn1c2ccccc2c2cc(F)ccc21 (centres unmarked) [WK-4, 1-(3-fluoro-9H-carbazol-9-yl)-3-((2-(2-methoxyphenoxy)ethyl)amino) propan-2-ol]
melting point: 55 to 57 °C | Inh% at 50 μM (human DNMT1): 56% | Inh% at 100 μM (human DNMT1): 60%

CC(O)CNCC(O)Cn1c2ccccc2c2cc(F)ccc21 (centres unmarked) [WK-6, 1-(3-Fluoro-9H-carbazol-9-yl)-3-((2-hydroxypropyl)amino)propan-2-ol]
melting point: 118 to 120 °C | Inh% at 50 μM (human DNMT1): 68% | Inh% at 100 μM (human DNMT1): 79%

OC(CNC1CC1)COC(Cn1c2ccccc2c2cc(F)ccc21)Cn1c2ccccc2c2cc(F)ccc21 (centres unmarked) [WK-24, 1-((1,3-Bis(3-fluoro-9H-carbazol-9-yl)propan-2-yl)oxy)-3-(cyclopropylamino)propan-2-ol]
melting point: 57 to 59 °C | Inh% at 50 μM (human DNMT1): 2.3% | Inh% at 100 μM (human DNMT1): 2.6% | DNMT1 inhibitory activity (human DNMT1): inactive

COc1ccccc1OCCNCC(O)Cn1c2ccc(F)cc2c2cc(F)ccc21 (centres unmarked) [WK-16, 1-(3,6-Difluoro-9H-carbazol-9-yl)-3-((2-(2-methoxyphenoxy)ethyl)amino) propan-2-ol]
melting point: 93 to 95 °C | Inh% at 50 μM (human DNMT1): 27% | Inh% at 100 μM (human DNMT1): 46%

OC(CNCCc1c[nH]c2ccccc12)Cn1c2ccccc2c2ccccc21 (centres unmarked) [DC_05, reference compound]
IC50 (DNMT1): 52 µM | Inh% at 50 μM (human DNMT1): 43% | Inh% at 100 μM (human DNMT1): 88%

CCCCOCCCNCC(O)COC(Cn1c2ccccc2c2cc(F)ccc21)Cn1c2ccc(F)cc2c2cc(F)ccc21 (centres unmarked) [WK-29, 1-((3-Butoxypropyl)amino)-3-((1-(3,6-difluoro-9H-carbazol-9-yl)-3-(3-fluoro-9H-carbazol-9-yl)propan-2-yl)oxy)propan-2-ol]
melting point: 151 to 153 °C | Inh% at 50 μM (human DNMT1): 85% | Inh% at 100 μM (human DNMT1): 80%

OC(CNCCc1c[nH]c2ccccc12)COC(Cn1c2ccccc2c2ccccc21)Cn1c2ccccc2c2ccccc21 (centres unmarked) [DC_517, reference compound]
AUC(0-t) (PK study in SD rats; iv, i.v. (2 mg/kg)): 1020 ± 60.9 ng·h/mL | Tmax (PK study in SD rats; iv, i.v. (2 mg/kg)): 0.08 h | half-life (PK study in SD rats; iv, i.v. (2 mg/kg)): 6.7 ± 0.2 h | bioavailability (PK study in SD rats; po, p.o. 10 mg/kg vs i.v. 2 mg/kg, F = (AUC p.o. × Dose i.v.)/(AUC i.v. × Dose p.o.) × 100%): 38.7 ± 2.9% | AUC(0-t) (PK study in SD rats; po, p.o. (10 mg/kg)): 2080 ± 113 ng·h/mL | Tmax (PK study in SD rats; po, p.o. (10 mg/kg)): 6 h | half-life (PK study in SD rats; po, p.o. (10 mg/kg)): 6.7 ± 0.9 h | IC50 (DNMT1): 2.3 µM | Inh% at 50 μM (human DNMT1): 96% | Inh% at 100 μM (human DNMT1): 98%

OC(CNCCc1c[nH]c2ccccc12)Cn1c2ccccc2c2ccncc21 (centres unmarked) [WK-20, 1-((2-(1H-indol-3-yl)ethyl)amino)-3-(9H-pyrido[3,4-b]indol-9-yl)propan-2-ol]
melting point: 85 to 87 °C | Inh% at 50 μM (human DNMT1): 68% | Inh% at 100 μM (human DNMT1): 77%
